Data as given in ChEMBL document CHEMBL2086338, “Design, synthesis, and evaluation of 2-substituted ethenesulfonic acid ester derivatives as protein tyrosine phosphatase 1B inhibitors” (Eur J Med Chem, 2012).

Assays:
[1] = molecular target: T1, Tyrosine-protein phosphatase non-receptor type 1 (Homo sapiens, UniProt P18031); test: Inhibition of human recombinant PTP1B assessed as inhibition of hydrolysis of […] after 10 mins by spectrophotometry
T1 sequence (P18031 whole entry): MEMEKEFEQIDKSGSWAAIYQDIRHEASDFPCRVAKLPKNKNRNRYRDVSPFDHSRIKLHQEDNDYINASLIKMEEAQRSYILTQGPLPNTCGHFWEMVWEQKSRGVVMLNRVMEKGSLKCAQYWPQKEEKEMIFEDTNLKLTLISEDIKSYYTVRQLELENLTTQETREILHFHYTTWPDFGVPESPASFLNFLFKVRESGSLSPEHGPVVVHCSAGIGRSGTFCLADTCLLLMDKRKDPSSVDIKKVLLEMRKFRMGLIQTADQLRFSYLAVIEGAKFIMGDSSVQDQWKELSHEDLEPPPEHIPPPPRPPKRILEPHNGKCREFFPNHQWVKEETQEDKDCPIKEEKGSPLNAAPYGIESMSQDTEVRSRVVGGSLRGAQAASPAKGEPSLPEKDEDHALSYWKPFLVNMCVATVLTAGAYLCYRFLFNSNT

[2] = molecular target: T2, Tyrosine-protein phosphatase non-receptor type 2 (Homo sapiens, UniProt P17706); test: Inhibition of human recombinant TCPTP assessed as inhibition of hydrolysis of […] after 10 mins by spectrophotometry
T2 sequence (P17706 whole entry): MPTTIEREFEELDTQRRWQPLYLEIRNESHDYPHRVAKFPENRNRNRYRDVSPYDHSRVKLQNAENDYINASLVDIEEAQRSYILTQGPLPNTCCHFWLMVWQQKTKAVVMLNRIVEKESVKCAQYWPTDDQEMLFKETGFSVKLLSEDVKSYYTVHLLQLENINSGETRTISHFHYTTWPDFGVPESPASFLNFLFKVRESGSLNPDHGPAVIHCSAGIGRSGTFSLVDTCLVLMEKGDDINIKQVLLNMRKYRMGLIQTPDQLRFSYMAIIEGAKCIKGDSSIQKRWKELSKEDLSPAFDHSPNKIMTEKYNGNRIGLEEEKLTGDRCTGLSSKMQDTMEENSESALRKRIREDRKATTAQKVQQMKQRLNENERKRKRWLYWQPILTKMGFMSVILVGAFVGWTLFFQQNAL

Homo sapiens = organism: Homo sapiens; test: Selectivity ratio of IC50 for human recombinant TCPT to IC50 for human recombinant PTP1B
COS-7 = test: Cytotoxicity against african green monkey COS7 cells after 48 hrs by MTT assay; format: cell-based; details: Chlorocebus aethiops, COS-7, 48 h

| Structure (SMILES) | IC50 [1] [µM] | IC50 [2] [µM] | Ratio IC50 (Homo sapiens) | IC50 (COS-7) [µM] |
| --- | --- | --- | --- | --- |
| O=S(=O)(O)C(F)(F)c1ccc(-c2cccc(F)c2)cc1 | 5 |  |  |  |
| CCOS(=O)(=O)/C=C/c1ccc(OCCCCNc2nc(-c3cccc4ccccc34)cs2)cc1 | 2.4 | 8.7 | 2 |  |
| CCOS(=O)(=O)/C=C/c1ccc(OCc2cc(-c3ccccc3)on2)cc1 | > 100 | > 100 |  | > 100 |
| CCOS(=O)(=O)/C=C/c1ccc(OCCCCNc2nc(-c3ccccc3F)cs2)cc1 | 2.5 | 6.4 | 2 |  |
| CCOS(=O)(=O)/C=C/c1ccc(OC)c(OCCCCNc2nc(-c3ccccc3)cs2)c1 | 3.3 | 5.7 | 2 |  |
| CCOS(=O)(=O)/C=C/c1ccc(OCCCCNc2nc(-c3cccc(OC)c3)cs2)cc1 | 2 | 8.2 | 2 |  |
| CCOc1ccc(-c2cc(COc3ccc(/C=C/S(=O)(=O)OCC)cc3)no2)cc1 | 44.4 | > 100 |  | > 100 |
| CCCCOS(=O)(=O)/C=C/c1ccc(OCCc2nc(-c3ccccc3)oc2C)cc1 | > 100 | > 100 |  | > 100 |
| CCOS(=O)(=O)/C=C/c1ccc(OC)c(OCCCCNc2nc(-c3ccccc3)c(C)s2)c1 | 9.7 | 15.6 | 2 |  |
| CCOS(=O)(=O)/C=C/c1ccc(OCCNc2nc(-c3ccccc3)cs2)cc1 | > 100 | > 100 |  | > 100 |
| CCOS(=O)(=O)/C=C/c1ccc(OCCCNc2nc(-c3ccccc3)cs2)cc1 | 24.8 | 29.5 |  | > 100 |
| COS(=O)(=O)/C=C/c1ccc(OCc2ccccc2)cc1OCCc1nc(-c2ccccc2)oc1C | 24.5 | 39.6 |  | > 100 |
| CCOS(=O)(=O)/C=C/c1ccc(OCCCCNc2nc(-c3ccc(F)cc3)cs2)cc1 | 1.3 | 14.1 | 2 |  |
| CCCCOS(=O)(=O)/C=C/c1ccc(OCc2ccccc2)cc1OCCc1nc(-c2ccccc2)oc1C | > 100 | > 100 |  | > 100 |
| CCOS(=O)(=O)/C=C/c1ccc(OCCCCNc2nc(-c3ccc(-c4ccccc4)cc3)cs2)cc1 | 1.9 | 15.7 | 2 |  |
| CCOS(=O)(=O)/C=C/c1ccc(OCCCCNc2nc(-c3ccc(OC)cc3)cs2)cc1 | 10.4 | > 100 | 2 |  |
| COC(=O)/C=C/c1ccc(/C=C/c2ccc(O)c(O)c2)cc1 | > 14.9 |  |  |  |

| Structure (SMILES) | IC50 [1] [µM] | IC50 [2] [µM] | Ratio IC50 (Homo sapiens) | IC50 (COS-7) [µM] |
| --- | --- | --- | --- | --- |
| CCOS(=O)(=O)/C=C/Cc1nc(-c2ccccc2)sc1C | > 100 | > 100 |  | > 100 |
| CCOS(=O)(=O)/C=C/c1ccc(OCc2ccccc2)cc1OCCc1csc(-c2ccccc2)n1 | 38.4 | 41.2 |  | > 100 |
| CCOS(=O)(=O)/C=C/c1ccc(OCCCCNc2nc(-c3ccccc3)c(-c3ccccc3)s2)c(OC)c1 | 2.6 | 8.6 |  |  |
| CCOS(=O)(=O)/C=C/c1ccc(OCc2ccccc2)cc1OCCc1nc(-c2ccccc2)oc1C | > 100 | > 100 |  | > 100 |
| CCOS(=O)(=O)/C=C/c1ccc(OCCCCNc2nc(-c3ccccc3)cs2)cc1 | 22 | 26.2 |  | > 100 |
| CCOS(=O)(=O)/C=C/c1ccc(OCCCCNc2nc(-c3ccccn3)cs2)cc1 | 1.5 | 31.9 | 2 |  |
| CCOS(=O)(=O)/C=C/c1ccc(OCCCCNc2nc(-c3ccccc3)c(C)s2)c(OC)c1 | 15.1 | > 100 |  |  |
| CCOS(=O)(=O)/C=C/c1ccc(OCCCCNc2nc(-c3ccc(Br)cc3)cs2)cc1 | 1.3 | 3.6 | 2 |  |
| CCCCOS(=O)(=O)/C=C/c1ccc(OCCc2csc(-c3ccccc3)n2)cc1 | > 100 | > 100 |  | > 100 |
| CCOS(=O)(=O)/C=C/c1ccc(OCCCCNc2nc(-c3ccccc3Cl)cs2)cc1 | 1.4 | 5 | 2 |  |
| CCOS(=O)(=O)/C=C/c1ccc(OC)c(OCCCCNc2nc(-c3ccccc3)c(-c3ccccc3)s2)c1 | 5.1 | 11.6 | 2 |  |
| CCOS(=O)(=O)/C=C/c1ccc(OCCc2nc(-c3ccccc3)oc2C)cc1 | > 100 | > 100 |  | 84.1 |
| CCOS(=O)(=O)/C=C/c1ccc(OCCCCNc2nc(-c3ccccc3)c(-c3ccccc3)s2)cc1 | 9.6 | 23.4 |  |  |
| CCOS(=O)(=O)/C=C/c1ccc(OCc2ccccc2)cc1OCCc1nc(-c2ccccc2)sc1C | > 100 | > 100 |  | > 100 |
| CCOS(=O)(=O)/C=C/c1ccc(OCCCCNc2nc(-c3ccccc3)c(C)s2)cc1 | 5.8 | 10.6 |  |  |
| CCOS(=O)(=O)/C=C/c1ccc(OCCCCNc2nc(-c3cccs3)cs2)cc1 | 8.6 | 11.2 | 2 |  |
